Consider 3 compounds from ChEMBL document CHEMBL1201862, “PubChem BioAssay data set” (2004).

The source made the active and inactive calls. Where only a bound is given, the exact number is not on record here.

Type in all cases: functional
Test [1] has as its target Multidrug resistance protein CDR2 (Candida albicans (strain SC5314 / ATCC MYA-2876) (Yeast), UniProt P78595). Put plainly: CaCDR2 efflux pump inhibitors in yeast, dose response, S. cerevisiae AD1-8u, singleplex, Cherry Pick1 hits (AID 588604).
Test [2] has as its target Neuropeptides B/W receptor type 1 (Homo sapiens, UniProt P48145). The test can be described thus: GPR7 antagonist potency, late-stage follow-up, cell-based, fluorescence, dose response, set 5 (AID 588566).
The target in test [3] is Melanin-concentrating hormone receptor 1 (Homo sapiens, UniProt Q99705). Put plainly: Late-stage fluorescence-based counterscreen for antagonists of the G-protein coupled receptor 7 (GPR7): cell-based dose response assay to identify antagonists of the melanin-concentrating hormone receptor 1 (MCHR1) Set 5.
In test [4] the target is ALK tyrosine kinase receptor (Homo sapiens, UniProt Q9UM73).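 Further: ALK tested as one member of a kinase panel screen.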
In test [5] the target is Serine/threonine-protein kinase D3 (Homo sapiens, UniProt O94806).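 Further: determined within a kinase panel screen, with PRKCN as the panel member.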
Test [6] has as its target Tyrosine-protein kinase Lck (Homo sapiens, UniProt P06239).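 Further: lck was assayed as one member of a kinase panel.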
The target in test [7] is Death-associated protein kinase 3 (Homo sapiens, UniProt O43293).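 Further: measured as one member of a kinome-wide profiling panel.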
A further test addresses Activin receptor type-1 (Homo sapiens, UniProt Q04771). Put plainly: Navigating the Kinome. Panel member name: ACVR1.
For test [8], the target named is Mitogen-activated protein kinase 8 (Homo sapiens, UniProt P45983).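 Further: value comes from one member of a kinome-wide kinase profiling panel.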
Test [9] has as its target Serine/threonine-protein kinase pim-1 (Homo sapiens, UniProt P11309).
In test [10] the target is Tyrosine-protein kinase BTK (Homo sapiens, UniProt Q06187).
In test [11] the target is Serine/threonine-protein kinase PAK 4 (Homo sapiens, UniProt O96013).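 Further: value obtained within a kinome profiling panel in which PAK4 was one of the panel members.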
Test [12] concerns the target Fibroblast growth factor receptor 1 (Homo sapiens, UniProt P11362).
In test [13] the target is Casein kinase I isoform alpha (Homo sapiens, UniProt P48729).
The target in test [14] is Tyrosine-protein kinase JAK3 (Homo sapiens, UniProt P52333).
For a further test, the target named is LIM domain kinase 1 (Homo sapiens, UniProt P53667). The test can be described thus: Navigating the Kinome. Panel member name: LIMK1.
The target in test [15] is Serine/threonine-protein kinase TAO1 (Homo sapiens, UniProt Q7L7X3).
Test [16] deals with Glycogen synthase kinase-3 alpha (Homo sapiens, UniProt P49840).
Test [17] has as its target Serine/threonine-protein kinase Chk1 (Homo sapiens, UniProt O14757).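 Further: measured as one member of a kinome-wide kinase profiling panel.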
The target in test [18] is G protein-coupled receptor kinase 5 (Homo sapiens, UniProt P34947). Put plainly: Navigating the Kinome. Panel member name: GPRK5.
In the next test the target is Focal adhesion kinase 1 (Homo sapiens, UniProt Q05397).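 Further: measured as one member of a kinome panel.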
The next test concerns the target Aurora kinase B (Homo sapiens, UniProt Q96GD4).
Test [19] concerns the target Tyrosine-protein kinase Fyn (Homo sapiens, UniProt P06241).
Test [20] deals with Cyclin-dependent kinase 8 (Homo sapiens, UniProt P49336). Put plainly: Navigating the Kinome. Panel member name: CDK8.
In test [21] the target is Cyclin-dependent kinase 7 (Homo sapiens, UniProt P50613).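 Further: value comes from a kinome-wide kinase profiling panel in which CDK7 is one member.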
Test [22] addresses Dual specificity protein kinase CLK4 (Homo sapiens, UniProt Q9HAZ1).
Test [23] has as its target Mitogen-activated protein kinase kinase kinase kinase 4 (Homo sapiens, UniProt O95819).
In test [24] the target is Calcium/calmodulin-dependent protein kinase type II subunit alpha (Homo sapiens, UniProt Q9UQM7). The test can be described thus: Navigating the Kinome. Panel member name: CAMK2A.
Test [25] addresses Leukocyte tyrosine kinase receptor (Homo sapiens, UniProt P29376). Put plainly: Navigating the Kinome. Panel member name: LTK.
The target of test [26] is Mitogen-activated protein kinase 14 (Homo sapiens, UniProt Q16539).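 Further: part of a kinome-wide panel, MAPK14 entry.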

Aurora kinase B, sequence (Q96GD4 whole entry): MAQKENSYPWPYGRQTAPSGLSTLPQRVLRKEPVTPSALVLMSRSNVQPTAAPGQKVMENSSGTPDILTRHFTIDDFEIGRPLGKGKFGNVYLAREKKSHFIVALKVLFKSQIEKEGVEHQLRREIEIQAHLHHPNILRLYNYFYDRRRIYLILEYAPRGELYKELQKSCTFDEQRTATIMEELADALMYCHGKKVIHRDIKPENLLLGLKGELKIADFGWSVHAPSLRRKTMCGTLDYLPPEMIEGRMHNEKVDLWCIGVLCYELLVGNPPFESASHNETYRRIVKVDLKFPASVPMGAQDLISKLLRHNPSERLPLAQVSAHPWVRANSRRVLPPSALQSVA
Melanin-concentrating hormone receptor 1, sequence (Q99705 whole entry): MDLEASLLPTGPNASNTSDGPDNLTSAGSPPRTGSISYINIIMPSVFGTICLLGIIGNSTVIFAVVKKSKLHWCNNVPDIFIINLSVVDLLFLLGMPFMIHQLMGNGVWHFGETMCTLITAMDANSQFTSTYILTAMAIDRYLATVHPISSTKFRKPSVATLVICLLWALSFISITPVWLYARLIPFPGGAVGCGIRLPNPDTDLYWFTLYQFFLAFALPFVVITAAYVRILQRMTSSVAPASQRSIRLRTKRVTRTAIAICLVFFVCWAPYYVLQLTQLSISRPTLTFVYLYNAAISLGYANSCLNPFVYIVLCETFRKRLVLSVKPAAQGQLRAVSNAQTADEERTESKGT
Tyrosine-protein kinase JAK3, sequence (P52333 whole entry, the tested form may be a part): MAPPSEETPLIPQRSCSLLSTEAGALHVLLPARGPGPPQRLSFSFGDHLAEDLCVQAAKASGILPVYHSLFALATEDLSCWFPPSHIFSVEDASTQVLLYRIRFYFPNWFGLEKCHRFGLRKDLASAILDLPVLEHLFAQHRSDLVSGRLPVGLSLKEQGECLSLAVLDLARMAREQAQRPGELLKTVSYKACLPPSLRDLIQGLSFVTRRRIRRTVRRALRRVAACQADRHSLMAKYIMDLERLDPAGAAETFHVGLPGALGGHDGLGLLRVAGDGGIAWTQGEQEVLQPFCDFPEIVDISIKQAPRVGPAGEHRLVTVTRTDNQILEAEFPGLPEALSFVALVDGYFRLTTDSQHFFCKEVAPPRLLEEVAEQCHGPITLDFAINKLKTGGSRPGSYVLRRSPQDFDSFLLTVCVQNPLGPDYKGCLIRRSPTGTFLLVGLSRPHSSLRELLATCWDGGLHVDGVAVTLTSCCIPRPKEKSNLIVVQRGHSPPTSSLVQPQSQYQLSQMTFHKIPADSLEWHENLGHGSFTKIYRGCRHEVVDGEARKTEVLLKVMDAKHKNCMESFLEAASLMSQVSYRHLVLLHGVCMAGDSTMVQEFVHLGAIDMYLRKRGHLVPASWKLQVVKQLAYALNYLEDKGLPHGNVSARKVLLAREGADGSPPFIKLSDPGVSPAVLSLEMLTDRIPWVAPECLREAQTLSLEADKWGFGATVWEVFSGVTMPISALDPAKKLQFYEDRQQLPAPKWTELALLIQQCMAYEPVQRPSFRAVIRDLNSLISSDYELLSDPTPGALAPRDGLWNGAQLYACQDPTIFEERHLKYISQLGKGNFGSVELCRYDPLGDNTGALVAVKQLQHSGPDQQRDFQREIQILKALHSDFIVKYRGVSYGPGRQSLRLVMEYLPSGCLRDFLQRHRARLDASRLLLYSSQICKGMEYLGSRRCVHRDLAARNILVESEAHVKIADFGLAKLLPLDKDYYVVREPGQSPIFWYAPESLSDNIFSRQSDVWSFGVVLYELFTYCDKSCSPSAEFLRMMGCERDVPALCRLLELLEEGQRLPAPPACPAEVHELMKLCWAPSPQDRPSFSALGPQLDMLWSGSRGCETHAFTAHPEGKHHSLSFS
Serine/threonine-protein kinase pim-1, sequence (P11309 whole entry): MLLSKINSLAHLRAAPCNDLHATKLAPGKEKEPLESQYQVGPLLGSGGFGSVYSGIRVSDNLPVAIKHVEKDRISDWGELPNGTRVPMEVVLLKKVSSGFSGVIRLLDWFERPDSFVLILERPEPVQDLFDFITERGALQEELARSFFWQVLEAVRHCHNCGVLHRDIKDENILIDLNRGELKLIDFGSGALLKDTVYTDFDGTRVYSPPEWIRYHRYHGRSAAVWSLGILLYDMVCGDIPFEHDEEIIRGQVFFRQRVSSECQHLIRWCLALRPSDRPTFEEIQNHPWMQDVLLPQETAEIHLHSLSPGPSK
Serine/threonine-protein kinase PAK 4, sequence (O96013 whole entry): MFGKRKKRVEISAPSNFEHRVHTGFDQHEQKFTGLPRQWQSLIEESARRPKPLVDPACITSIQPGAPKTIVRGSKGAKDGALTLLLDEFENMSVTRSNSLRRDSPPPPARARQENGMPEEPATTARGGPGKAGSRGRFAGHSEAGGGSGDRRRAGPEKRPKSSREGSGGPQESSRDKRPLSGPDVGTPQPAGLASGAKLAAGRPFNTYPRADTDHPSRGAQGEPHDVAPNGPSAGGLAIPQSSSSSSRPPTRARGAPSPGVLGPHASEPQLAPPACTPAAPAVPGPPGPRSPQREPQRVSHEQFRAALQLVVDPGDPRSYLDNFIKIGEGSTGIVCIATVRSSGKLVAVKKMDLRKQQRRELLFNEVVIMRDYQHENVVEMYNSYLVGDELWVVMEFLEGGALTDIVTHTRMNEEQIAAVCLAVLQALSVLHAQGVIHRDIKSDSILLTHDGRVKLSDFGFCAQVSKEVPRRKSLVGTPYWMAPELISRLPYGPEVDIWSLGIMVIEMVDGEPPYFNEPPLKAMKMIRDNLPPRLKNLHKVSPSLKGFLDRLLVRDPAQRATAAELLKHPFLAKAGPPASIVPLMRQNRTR
Tyrosine-protein kinase Fyn, sequence (P06241 whole entry): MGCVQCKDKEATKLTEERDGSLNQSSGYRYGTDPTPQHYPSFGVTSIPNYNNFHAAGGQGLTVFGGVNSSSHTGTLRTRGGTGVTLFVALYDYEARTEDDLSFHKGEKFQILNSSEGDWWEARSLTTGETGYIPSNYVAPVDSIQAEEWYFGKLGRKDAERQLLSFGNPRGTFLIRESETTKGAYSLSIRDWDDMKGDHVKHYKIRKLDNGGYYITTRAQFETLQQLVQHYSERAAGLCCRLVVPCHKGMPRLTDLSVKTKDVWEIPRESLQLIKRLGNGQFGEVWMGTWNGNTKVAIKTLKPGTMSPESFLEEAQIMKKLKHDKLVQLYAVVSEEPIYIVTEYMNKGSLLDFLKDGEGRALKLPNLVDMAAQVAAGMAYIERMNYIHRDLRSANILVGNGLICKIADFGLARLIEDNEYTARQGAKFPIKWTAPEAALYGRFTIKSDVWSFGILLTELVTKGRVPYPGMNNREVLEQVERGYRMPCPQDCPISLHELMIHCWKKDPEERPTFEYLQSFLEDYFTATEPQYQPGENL
Leukocyte tyrosine kinase receptor, sequence (P29376 whole entry): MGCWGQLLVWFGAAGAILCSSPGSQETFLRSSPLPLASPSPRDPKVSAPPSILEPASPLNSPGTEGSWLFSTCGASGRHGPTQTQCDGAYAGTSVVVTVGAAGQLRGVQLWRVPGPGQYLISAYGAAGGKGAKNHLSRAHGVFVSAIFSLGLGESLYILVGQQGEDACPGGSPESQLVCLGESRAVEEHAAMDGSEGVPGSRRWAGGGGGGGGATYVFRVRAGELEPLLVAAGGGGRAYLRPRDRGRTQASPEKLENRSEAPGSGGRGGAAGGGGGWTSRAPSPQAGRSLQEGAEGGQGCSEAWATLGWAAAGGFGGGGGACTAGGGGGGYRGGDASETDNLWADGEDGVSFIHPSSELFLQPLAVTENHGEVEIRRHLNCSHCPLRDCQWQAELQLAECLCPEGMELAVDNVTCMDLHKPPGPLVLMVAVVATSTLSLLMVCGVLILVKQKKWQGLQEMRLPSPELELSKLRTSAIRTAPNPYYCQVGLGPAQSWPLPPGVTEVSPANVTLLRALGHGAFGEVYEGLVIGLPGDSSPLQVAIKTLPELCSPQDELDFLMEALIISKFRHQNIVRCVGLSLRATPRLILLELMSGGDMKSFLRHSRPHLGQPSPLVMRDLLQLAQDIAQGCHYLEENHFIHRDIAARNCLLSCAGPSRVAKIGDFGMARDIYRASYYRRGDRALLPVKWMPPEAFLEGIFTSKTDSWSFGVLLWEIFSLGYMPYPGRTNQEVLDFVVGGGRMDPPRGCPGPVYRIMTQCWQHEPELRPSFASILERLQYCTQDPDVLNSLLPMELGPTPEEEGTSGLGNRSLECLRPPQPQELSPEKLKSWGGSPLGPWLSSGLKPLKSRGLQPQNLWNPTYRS
Fibroblast growth factor receptor 1, sequence (P11362 whole entry, canonical isoform): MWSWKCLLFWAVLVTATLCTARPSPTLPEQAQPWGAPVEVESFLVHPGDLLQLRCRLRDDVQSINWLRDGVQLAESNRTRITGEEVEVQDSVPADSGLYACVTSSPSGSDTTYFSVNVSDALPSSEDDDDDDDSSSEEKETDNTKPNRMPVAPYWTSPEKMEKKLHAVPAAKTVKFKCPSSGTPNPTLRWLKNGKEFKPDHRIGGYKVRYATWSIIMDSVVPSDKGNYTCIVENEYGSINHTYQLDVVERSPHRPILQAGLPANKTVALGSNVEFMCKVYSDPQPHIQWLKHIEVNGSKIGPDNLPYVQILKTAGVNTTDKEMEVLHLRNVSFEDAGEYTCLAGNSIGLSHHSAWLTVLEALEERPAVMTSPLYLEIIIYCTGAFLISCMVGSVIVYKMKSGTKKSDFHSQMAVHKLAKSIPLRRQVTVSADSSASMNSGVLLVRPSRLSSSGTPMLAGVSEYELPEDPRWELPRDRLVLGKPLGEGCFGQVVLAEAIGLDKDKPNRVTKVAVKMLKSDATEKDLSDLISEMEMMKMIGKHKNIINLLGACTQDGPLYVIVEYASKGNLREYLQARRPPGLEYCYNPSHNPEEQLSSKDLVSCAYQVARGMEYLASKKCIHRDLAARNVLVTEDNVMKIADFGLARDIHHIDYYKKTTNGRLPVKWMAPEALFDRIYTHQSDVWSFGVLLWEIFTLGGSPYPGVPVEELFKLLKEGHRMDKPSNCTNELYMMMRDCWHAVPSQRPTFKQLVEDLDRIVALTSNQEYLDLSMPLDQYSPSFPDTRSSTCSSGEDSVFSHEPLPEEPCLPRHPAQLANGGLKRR

One may read the EC50 as the concentration giving half of the maximal effect. `CCCCSC1=N/C(=C/c2ccsc2)C(=O)N1c1ccccc1`: in [1], the EC50 was 10.3 µM (active).

What is called IC50 is the concentration that gives 50% inhibition. With `O=c1c(Cl)c(Oc2ccc3c(c2)CCO3)cnn1Cc1cccc2ccccc12`, the IC50 is 3.22 µM (active) in test [2] and 10.4 µM (inactive) in [3].

For orientation: Ki means the dissociation constant of the complex between target and ligand, obtained from inhibition or displacement. As for `CCN(CC)CCNc1ccc(O)c2ccccc12`, the Ki in test [4] was > 6.31 µM (inactive); in test [5] it was > 3.98 µM (inactive); in test [6], > 6.31 µM (inactive); in [7], > 5.01 µM (inactive); on Activin receptor type-1 it was > 3.98 µM (inactive); in test [8], > 5.01 µM (inactive). In addition, the inhibition constant Ki in test [9] is 2.51 µM (active); in [10] it was > 6.31 µM (inactive); in [11], > 5.01 µM (inactive); in test [12], > 3.98 µM (inactive); in test [13] it was > 3.98 µM (inactive); in test [14], > 5.01 µM (inactive). Also, the Ki on LIM domain kinase 1 is 0.794 µM (active); in [15] it was > 6.31 µM (inactive); in test [16], > 3.98 µM (inactive); in [17], 0.398 µM (active); in [18], > 3.98 µM (inactive); on Focal adhesion kinase 1, > 6.31 µM (inactive). For the same compound, the Ki on Aurora kinase B is > 3.98 µM (inactive); in test [19], > 6.31 µM (inactive); in test [20] it was > 3.98 µM (inactive); in test [21] it was > 3.98 µM (inactive); in [22], 2 µM (active); in [23], > 5.01 µM (inactive). Further, the Ki is > 3.98 µM (inactive) in test [24], 2 µM (active) in [25] and > 3.98 µM (inactive) in test [26].
